Reference: patent US20170312308A1, “XENON AND/OR ARGON TREATMENT AS AN ADJUNCT TO PSY[…] PSYCHIATRIC DISORDERS” (THE MCLEAN HOSPITAL CORPORATION, priority 2012, published 2017)
Entries after “also recorded” stand apart in the source; their conditions may differ.

Legend:
Format in all cases: in vivo, rat
Male Sprague-Dawley rats [1] = test: Conditioned freezing paradigm: consolidation of fear memory (xenon exposure immediately after fear conditioning); conditions: for conditioned freezing to context (consolidation of fear memory) / conditioned freezing to tone (CS) (consolidation of fear memory): xenon 25% for 24 h immediately after tone+shock training, vs Air-treated, tested after exposure and retested 1 and 2 weeks later; for conditioned freezing to context (consolidation of fear memory): FIG. 1B; for conditioned freezing to tone (CS) (consolidation of fear memory): FIG. 1C
Description: (§1) An illustration of the methodology used for training and testing rats in the conditioned freezing paradigm is shown in FIG. 1 (see also Johansen et al., Cell, 2011, 147; 509-524). Male Sprague-Dawley rats (350-375 g) were housed for at least one week before the experiment. On the training day, rats were placed into a conditioning chamber, housed within a sound-attenuating cabinet (Med Associates, Georgia, Vt.), for 2 min before the onset of the conditioned stimulus (CS). The CS was a tone (5 kHz, 75 dB) that lasted for 30 s. The last 2 s of the CS were paired with a continuous foot shock (0.6 mA, the unconditioned stimulus (US)). Rats received two presentations of the CS+US (tone plus shock). After additional 30 s in the chamber, rats were randomly divided into two groups (n=4/group) and immediately placed in either the Air or xenon-exposure chambers. After 24-h of air or xenon (25%) exposure, rats were tested for retention of conditioned fear using conditioned freezing as a measure of fear. For the test, rats were placed into a different context and, 2 min later, were exposed to the tone CS (5 kHz, 75 dB) for 60 s. Freezing scores were calculated as the percentage of the total duration that the rat remained immobile (frozen) other than breathing during the first 2 min (freezing to context) and during presentation of the CS (freezing to tone). Rats were then returned to the main animal holding room (i.e. no more air or xenon exposure took place) and were retested 1 and 2 weeks later (re-test and 3rd test) as described above.

Male Sprague-Dawley rats [2] = test: Conditioned freezing paradigm: reconsolidation of fear memory (xenon exposure after reactivation test); conditions: for conditioned freezing to context (reconsolidation of fear memory): FIG. 1D; for conditioned freezing to tone (reconsolidation of fear memory): FIG. 1E
Description: as §1
Newly formed memories, including traumatic memories, are stabilized over several hours after the acquisition for long-term storage. This process, termed consolidation, critically depends on the permanence of acquisition-induced synaptic modifications in the corresponding neural circuits and is NMDA-receptor dependent. Once retrieved, consolidated memory enters a labile state again and should be reconsolidated, or it will be diminished or lost (see Debiec, 2012). To explore the effects of xenon exposure on post-retrieval memory reconsolidation, the inventors trained and tested male Sprague-Dawley rats in the conditioned freezing paradigm described in the methods section above.
Immediately after the fear memory test (24 h post-conditioning), where animals are subjected to context and CS (tone) exposure previously paired with shock (on the training day), rats were placed in either the Air or xenon (25%) exposure chambers for 1 hr. Rats were then tested for conditioned freezing 48 hours later. […]

Male Sprague-Dawley rats [3] = test: as above; conditions: xenon 25%, no react group (no reactivation test); for conditioned freezing to context, animals without reactivation test: FIG. 1F; for conditioned freezing to tone, animals without reactivation test: FIG. 1G
[4] = xenon 25% for 1 hr after reactivation test 24 h post-conditioning, re-tested 48 hours later (PR-LTM1)
[5] = xenon 25% for 1 hr after reactivation test 24 h post-conditioning, re-tested 48 hours later (PR-LTM1), listed as Xe
[6] = xenon 25% for one hour after reactivation, tested after another 48 hours (PR-LTM2)

**Q.** With `[Xe]` [xenon] as the compound, how does the “fear memory / conditioned freezing, context and cue not separated” value (Male Sprague-Dawley rats [1]; inhaled xenon (25%), male Sprague-Dawley rats, vs non-treated animals, FIG. 1) read?
**A.** significantly reduces the consolidation of fear memories; also recorded: significantly reduced conditioned freezing

**Q.** And the “conditioned freezing to context (consolidation of fear memory)” value (Male Sprague-Dawley rats [1])?
**A.** reduced levels of conditioned freezing

**Q.** What about the “conditioned freezing to context (consolidation of fear memory)” value (Male Sprague-Dawley rats [1]; listed as Xe) of the same compound?
**A.** significant reduction in freezing

**Q.** And the “conditioned freezing to tone (CS) (consolidation of fear memory)” value (Male Sprague-Dawley rats [1])?
**A.** reduced levels of conditioned freezing

**Q.** What about the “conditioned freezing to tone (CS) (consolidation of fear memory)” value (Male Sprague-Dawley rats [1]; listed as Xe) of the same compound?
**A.** also reduced

**Q.** And the “conditioned freezing to context (reconsolidation of fear memory)” value (Male Sprague-Dawley rats [2]; [4])?
**A.** reduces the expression of conditioned freezing; also recorded: blocks reconsolidation of conditioned fear

**Q.** What about the “conditioned freezing to context (reconsolidation of fear memory)” value (Male Sprague-Dawley rats [2]; [5]) of the same compound?
**A.** significantly less freezing

**Q.** What about the “conditioned freezing to tone (reconsolidation of fear memory)” value (Male Sprague-Dawley rats [2]; [4]) of the same compound?
**A.** reduces the expression of conditioned freezing; also recorded: blocks reconsolidation of conditioned fear

**Q.** And the “conditioned freezing to tone (reconsolidation of fear memory)” value (Male Sprague-Dawley rats [2]; [5])?
**A.** significantly less freezing

**Q.** And the “conditioned freezing to context (reconsolidation of fear memory)” value (Male Sprague-Dawley rats [2]; [6])?
**A.** significantly less freezing

**Q.** What about the “conditioned freezing to tone (reconsolidation of fear memory)” value (Male Sprague-Dawley rats [2]; [6]) of the same compound?
**A.** significantly less freezing

**Q.** And the “conditioned freezing to context, animals without reactivation test” value (Male Sprague-Dawley rats [3])?
**A.** does not block reconsolidation of conditioned fear

**Q.** What about the “conditioned freezing to context, animals without reactivation test” value (Male Sprague-Dawley rats [3]; listed as Xe) of the same compound?
**A.** no reduction in freezing

**Q.** What about the “conditioned freezing to tone, animals without reactivation test” value (Male Sprague-Dawley rats [3]) of the same compound?
**A.** does not block reconsolidation of conditioned fear

**Q.** What about the “conditioned freezing to tone, animals without reactivation test” value (Male Sprague-Dawley rats [3]; listed as Xe) of the same compound?
**A.** no reduction in freezing
